Measurements taken from PMC9176062, “Phase Ib study of combinations of avadomide (CC‐122), CC‐223, CC‐292, and rituximab in patients with relapsed/refractory diffuse large B‐cell lymphoma” (EJHaem, 2022).

Columns and labels:
patients with R/R DLBCL = assay: Treatment duration, modification, and exposure; assay type: in vivo; conditions: human, in vivo
Description: CC‐122 hydrochloride, referred to here as CC‐122, as an active pharmaceutical ingredient in capsule (AIC) formulation, was administered orally once daily (QD). An alternate intermittent schedule of CC‐122 QD for five of every seven consecutive days (5/7), which improved tolerability and reduced the frequency and severity of neutropenia in a study of CC‐122 monotherapy in DLBCL, was also explored. CC‐292 was administered orally twice daily (BID) and CC‐223 was administered orally QD. Rituximab was administered on day 8 of cycle 1, day 1 of cycles 2–6, and day 1 of every third cycle thereafter. Patients in arm A received CC‐122 and CC‐223 with or without rituximab (starting at CC‐122 2 mg QD and CC‐223 20 mg QD), patients in arm B received CC‐122 plus CC‐292 with or without rituximab (starting at CC‐122 2 mg QD and CC‐292 500 mg BID), patients in arm C were treated with CC‐223 and CC‐292 (starting at CC‐223 20 mg QD and CC‐292 500 mg BID), and those in arm D received CC‐122 plus rituximab (starting at CC‐122 2 mg QD). In arm D, a CC‐122 3 mg formulated capsule was introduced with the same strength as CC‐122 3 mg AIC. Each dose level was cleared before the next was started. If unacceptable toxicity occurred at the initial dose level, dose reductions for CC‐122 (1.5 mg QD and 1 mg QD) and CC‐223 (15 mg QD) were allowed; no starting dose reductions for CC‐292 were planned. For arm A, the Safety Review Committee (SRC) determined which of the two drugs in the doublet to reduce. For arms B and D, the CC‐122 dose was reduced and for arm C, the CC‐223 dose was reduced. Assignment of patients to study arms was at the discretion of the investigator and based on slot availability per the study design.
Patients who experienced dose‐limiting toxicity (DLT) after receiving ≥1 dose of study treatment or those who received ≥80% of planned doses of CC‐122, CC‐223, CC‐292, and rituximab during cycle 1 without experiencing a DLT were considered DLT‐evaluable. If zero out of ≥3 or ≤1 out of six evaluable patients in a cohort experienced a DLT during cycle 1 in parallel dose cohorts, then dose escalation could occur. DLTs are defined in the Supplementary Materials; individual investigators performed response assessments and determined DLTs. The NTD was defined as the dose level at which ≥2 of six evaluable patients in a cohort experienced a DLT during cycle 1. […] During cycle 1, any adverse event (AE) that led to dose reduction was considered a DLT. Patients could resume CC‐122 at a reduced dose only if they recovered to grade ≤1 within 14 days of dose interruption; two dose reductions were allowed before the patient was withdrawn from the study. Dose reductions were permitted for CC‐122, CC‐223, and CC‐292; no dose reductions were allowed for rituximab, but treatment could be discontinued at the discretion of the investigator. […] For arms A, B, and D, CC‐122 dosing was modified to the intermittent 5/7‐day schedule based on SRC review and escalated until the MTD/RP2D was established. Treatment was given until disease progression, unacceptable toxicity, or patient/physician decision to withdraw consent.
^aTreatment duration defined as date of last derived dose – date of first dose + 1.
^bDefined as the ratio of actual dose received to planned dose over the treatment period.

Aiolos = assay: Blood pharmacodynamic biomarker Aiolos in CD3+ T cells and CD19+ B cells; assay type: in vivo, human; conditions: arm B (with CC‐292), 3 h post‐dose; for median decline in Aiolos levels: 1 mg of CC‐122; for decline in Aiolos levels: 2‐mg CC‐122 group
Description: AEs were assessed according to the National Cancer Institute Common Terminology Criteria for AEs, version 4.03, up to 28 days after the last treatment. Blood samples for PK analysis were collected on days 15 to 28, predose, and at 1.5 and 3 h post‐dose on days 1 and 15 of cycle 1 for all dose cohorts. Additional blood samples were collected on day 15 from patients in dose level 2 of arm C to examine CC‐223 and CC‐292 steady‐state PK. Pharmacodynamic biomarkers of each novel agent were explored at baseline and cycle 1, day 1 (pre‐dose, and at 1.5 and 3 h) and cycle 1, day 15 (pre‐dose, and at 1.5 and 3 h), including cereblon modulation substrates in B and T cells in patients treated with CC‐122 and mTOR signaling pathway biomarkers (e.g., p4EBP1 and pAKT) in patients treated with CC‐223. Tumor assessments were performed at screening and at the end of even‐numbered cycles through cycle 6, then every three cycles through cycle 12, and every 6 months thereafter. Responses were assessed by the investigator per International Working Group 2007 criteria.
Safety analyses were performed on all patients who received ≥1 dose of study treatment (safety population). The PK population comprised all patients who took ≥1 dose of study treatment and had ≥1 measured drug concentration. […] The biomarker‐evaluable population comprised all patients who took ≥1 dose of study treatment and had ≥1 pharmacodynamic assessment. Safety and efficacy analyses were based on the safety population except where noted (PK and biomarkers). PK parameters were calculated using actual times relative to the most recent administration. The median duration of response (DOR) and median PFS were calculated per the Kaplan‐Meier method.
Per cent change from baseline in Aiolos in CD3+ T cells (A) and CD19+ B cells (B) and in p4EBP1 (C) and pAKT (D) at 3 h post‐dose on day 1 of cycle 1 (biomarker‐evaluable population). The change in Aiolos expression in CD3+ T cells and CD19+ B cells was calculated within each avadomide‐ and CC‐223‐containing arm. *p ≤ 0.05 versus baseline; **p ≤ 0.01 versus baseline; ***p ≤ 0.001 versus baseline; DL, dose level; MEFL, molecules of equivalent fluorescence label; NS, not significant

DOHH2 cells = assay: DOHH2 xenograft model; assay type: in vivo; conditions: DLBCL xenograft model (DOHH2, SCID mice); avadomide oral once daily, rituximab 1 mg/kg once weekly
Description: Female severe combined immunodeficiency (SCID) mice (CB17/Icr-Prkdcscid, Charles River) were 8 weeks old, with body weights ranging from 15.0 g to 23.2 g on day 1 of these studies. Each SCID mouse was injected subcutaneously in the right flank with 5 × 10^6 DOHH2 cells (0.2-mL cell suspension). Tumors were calipered in 2 dimensions to monitor growth as their mean volume approached 100 to 150 mm^3. Fourteen days after tumor cell implantation, mice were sorted into treatment groups of 10 mice per group. Tumors were calipered twice weekly during the study. Avadomide was suspended in 0.5% carboxymethyl cellulose (0.25% Tween-80 in deionized water). Vehicle control and avadomide were each administered via oral gavage once daily; rituximab (1 mg/kg) was administered once weekly for the duration of the study.
FIGURE S1 Change in the percentage of apoptotic cells over time (A) and in vivo tumor growth response after combination treatment with avadomide and rituximab (B). Natural killer cell activity against DOHH or RL FL cell lines determined by flow cytometry is shown (A). Female CB17 severe combined immunodeficiency mice implanted subcutaneously with DOHH2 cells were administered vehicle and avadomide once daily and rituximab given 1 mg/kg once weekly (B). SEM, standard error of the mean; TGI, tumor growth inhibition. mm^3

DOHH2 and RL cells = assay: Antibody-dependent, cell-mediated cytotoxicity (NK cells vs tumor cells, flow cytometry); assay type: cell-based; conditions: two DLBCL cell lines; NK cells pretreated with avadomide 1–100 nM, rituximab 1 μg/mL
Description: Purified natural killer (NK) cells from patient peripheral blood mononuclear cell samples were treated with 10 ng/mL rh-IL-2 (R&D) alone or with avadomide (1–100 nM) for 24 hours at 37°C. Cells (1 × 10^6 cells/mL) from 2 FL cell lines, DOHH2 and RL, were stained with CellTrace carboxyfluorescein succinimidyl ester (CFSE; Thermo Fisher Scientific) (200 nmol/L) for 5 minutes at room temperature, then treated with dimethyl sulfoxide (DMSO; vehicle) or rituximab (1 μg/mL) for 1 hour prior to coculture. Target tumor DOHH2 and RL cells (2 × 10^4 cells) were added to DMSO or avadomide pretreated effector NK cells at a 1:5 ratio (target to effector cells) and were incubated for 4 hours at 37°C. Cells were stained with Annexin V-PE and TO-PRO-3 (Thermo Fisher Scientific) according to the manufacturer’s instructions. The percentage of tumor apoptosis was determined by sequential gating for CFSE-positive and double-positive (Annexin V-PE and TO-PRO-3–positive) cells.
FIGURE S1 Change in the percentage of apoptotic cells over time (A) and in vivo tumor growth response after combination treatment with avadomide and rituximab (B). Natural killer cell activity against DOHH or RL FL cell lines determined by flow cytometry is shown (A). […]

## Cc1nc2cccc(N)c2c(=O)n1C1CCC(=O)NC1=O (stereo not drawn) [CC‐122, Avadomide]
Patients with R/R DLBCL
  patients with dose reductions of the drug: 20.5%
  ≥1 dose interruption: 59 (67.0) n (%)
  ≥1 dose interruption: Adverse event: 49 (55.7) n (%)
  ≥1 dose interruption: Other: 35 (39.8) n (%)
  ≥1 dose interruption: Per protocol: 6 (6.8) n (%)
  ≥1 dose reduction: 18 (20.5) n (%)
  ≥1 dose reduction: Adverse event: 11 (12.5) n (%)
  ≥1 dose reduction: Other: 5 (5.7) n (%)
  ≥1 dose reduction: Per protocol: 1 (1.1) n (%)
Aiolos; CD3+ T cells
  median decline in Aiolos levels: approximately 20%
  decline in Aiolos levels: approximately 40%
Aiolos; CD19+ B cells
  median decline in Aiolos levels: ~5%
  decline in Aiolos levels: ~32%
DOHH2 cells
  tumor growth inhibition (TGI): 28%
DOHH2 and RL cells
  rituximab‐mediated antibody‐dependent cell‐mediated cytotoxicity: enhancement
